According to BigSolDB 2.1:

NC(=O)c1nc(F)cnc1O
solubility (mole fraction) (in DMF, 293.15 K): 0.0109
solubility (mole fraction) (in DMF, 298.15 K): 0.0116
solubility (mole fraction) (in DMF, 303.15 K): 0.0128
solubility (mole fraction) (in DMF, 308.15 K): 0.0133
solubility (mole fraction) (in DMF, 313.15 K): 0.0156
solubility (mole fraction) (in DMF, 318.15 K): 0.0183
solubility (mole fraction) (in DMF, 323.15 K): 0.0212
solubility (mole fraction) (in DMF, 328.15 K): 0.0234
solubility (mole fraction) (in DMF, 333.15 K): 0.026
solubility (mole fraction) (in acetone, 293.15 K): 0.00417
solubility (mole fraction) (in acetone, 298.15 K): 0.00458
solubility (mole fraction) (in acetone, 303.15 K): 0.00492
solubility (mole fraction) (in acetone, 308.15 K): 0.00523
solubility (mole fraction) (in acetone, 313.15 K): 0.00585
solubility (mole fraction) (in acetone, 318.15 K): 0.00638
solubility (mole fraction) (in acetone, 323.15 K): 0.00699
solubility (mole fraction) (in acetone, 328.15 K): 0.00772
solubility (mole fraction) (in acetone, 333.15 K): 0.00859
solubility (mole fraction) (in acetonitrile, 293.15 K): 0.00183
solubility (mole fraction) (in acetonitrile, 298.15 K): 0.00188
solubility (mole fraction) (in acetonitrile, 303.15 K): 0.00193
solubility (mole fraction) (in acetonitrile, 308.15 K): 0.00207
solubility (mole fraction) (in acetonitrile, 313.15 K): 0.00226
solubility (mole fraction) (in acetonitrile, 318.15 K): 0.00242
solubility (mole fraction) (in acetonitrile, 323.15 K): 0.00268
solubility (mole fraction) (in acetonitrile, 328.15 K): 0.00285
solubility (mole fraction) (in acetonitrile, 333.15 K): 0.00293
solubility (mole fraction) (in dichloromethane, 293.15 K): 0.00231
solubility (mole fraction) (in dichloromethane, 298.15 K): 0.00271
solubility (mole fraction) (in dichloromethane, 303.15 K): 0.00277
solubility (mole fraction) (in dichloromethane, 308.15 K): 0.00284
solubility (mole fraction) (in dichloromethane, 313.15 K): 0.00328
solubility (mole fraction) (in dichloromethane, 318.15 K): 0.00359
solubility (mole fraction) (in dichloromethane, 323.15 K): 0.00398
solubility (mole fraction) (in dichloromethane, 328.15 K): 0.00462
solubility (mole fraction) (in dichloromethane, 333.15 K): 0.00514
solubility (mole fraction) (in ethanol, 293.15 K): 0.00206
solubility (mole fraction) (in ethanol, 298.15 K): 0.00238
solubility (mole fraction) (in ethanol, 303.15 K): 0.00252
solubility (mole fraction) (in ethanol, 308.15 K): 0.00279
solubility (mole fraction) (in ethanol, 313.15 K): 0.00318
solubility (mole fraction) (in ethanol, 318.15 K): 0.00339
solubility (mole fraction) (in ethanol, 323.15 K): 0.00366
solubility (mole fraction) (in ethanol, 328.15 K): 0.00395
solubility (mole fraction) (in ethanol, 333.15 K): 0.00458
solubility (mole fraction) (in ethyl acetate, 293.15 K): 0.0036
solubility (mole fraction) (in ethyl acetate, 298.15 K): 0.00396
solubility (mole fraction) (in ethyl acetate, 303.15 K): 0.00442
solubility (mole fraction) (in ethyl acetate, 308.15 K): 0.00449
solubility (mole fraction) (in ethyl acetate, 313.15 K): 0.00497
solubility (mole fraction) (in ethyl acetate, 318.15 K): 0.00525
solubility (mole fraction) (in ethyl acetate, 323.15 K): 0.00572
solubility (mole fraction) (in ethyl acetate, 328.15 K): 0.00599
solubility (mole fraction) (in ethyl acetate, 333.15 K): 0.00662
solubility (mole fraction) (in isopropanol, 293.15 K): 0.00185
solubility (mole fraction) (in isopropanol, 298.15 K): 0.00196
solubility (mole fraction) (in isopropanol, 303.15 K): 0.00209
solubility (mole fraction) (in isopropanol, 308.15 K): 0.00236
solubility (mole fraction) (in isopropanol, 313.15 K): 0.00268
solubility (mole fraction) (in isopropanol, 318.15 K): 0.00284
solubility (mole fraction) (in isopropanol, 323.15 K): 0.00315
solubility (mole fraction) (in isopropanol, 328.15 K): 0.00318
solubility (mole fraction) (in isopropanol, 333.15 K): 0.00326
solubility (mole fraction) (in methanol, 293.15 K): 0.00147
solubility (mole fraction) (in methanol, 298.15 K): 0.00152
solubility (mole fraction) (in methanol, 303.15 K): 0.00156
solubility (mole fraction) (in methanol, 308.15 K): 0.00163
solubility (mole fraction) (in methanol, 313.15 K): 0.00169
solubility (mole fraction) (in methanol, 318.15 K): 0.00176
solubility (mole fraction) (in methanol, 323.15 K): 0.00182
solubility (mole fraction) (in methanol, 328.15 K): 0.00195
solubility (mole fraction) (in methanol, 333.15 K): 0.00199
solubility (mole fraction) (in methyl acetate, 293.15 K): 0.00397
solubility (mole fraction) (in methyl acetate, 298.15 K): 0.00408
solubility (mole fraction) (in methyl acetate, 303.15 K): 0.00464
solubility (mole fraction) (in methyl acetate, 308.15 K): 0.00499
solubility (mole fraction) (in methyl acetate, 313.15 K): 0.00521
solubility (mole fraction) (in methyl acetate, 318.15 K): 0.00564
solubility (mole fraction) (in methyl acetate, 323.15 K): 0.00597
solubility (mole fraction) (in methyl acetate, 328.15 K): 0.00624
solubility (mole fraction) (in methyl acetate, 333.15 K): 0.00778
solubility (mole fraction) (in n-butanol, 293.15 K): 0.00263
solubility (mole fraction) (in n-butanol, 298.15 K): 0.00296
solubility (mole fraction) (in n-butanol, 303.15 K): 0.00318
solubility (mole fraction) (in n-butanol, 308.15 K): 0.00346
solubility (mole fraction) (in n-butanol, 313.15 K): 0.00385
solubility (mole fraction) (in n-butanol, 318.15 K): 0.00409
solubility (mole fraction) (in n-butanol, 323.15 K): 0.00463
solubility (mole fraction) (in n-butanol, 328.15 K): 0.00499
solubility (mole fraction) (in n-butanol, 333.15 K): 0.00537
solubility (mole fraction) (in n-butyl acetate, 293.15 K): 0.00502
solubility (mole fraction) (in n-butyl acetate, 298.15 K): 0.00513
solubility (mole fraction) (in n-butyl acetate, 303.15 K): 0.00582
solubility (mole fraction) (in n-butyl acetate, 308.15 K): 0.00641
solubility (mole fraction) (in n-butyl acetate, 313.15 K): 0.00681
solubility (mole fraction) (in n-butyl acetate, 318.15 K): 0.00741
solubility (mole fraction) (in n-butyl acetate, 323.15 K): 0.00839
solubility (mole fraction) (in n-butyl acetate, 328.15 K): 0.00894
solubility (mole fraction) (in n-butyl acetate, 333.15 K): 0.00986
solubility (mole fraction) (in n-propanol, 293.15 K): 0.00188
solubility (mole fraction) (in n-propanol, 298.15 K): 0.00197
solubility (mole fraction) (in n-propanol, 303.15 K): 0.00225
solubility (mole fraction) (in n-propanol, 308.15 K): 0.00258
solubility (mole fraction) (in n-propanol, 313.15 K): 0.00276
solubility (mole fraction) (in n-propanol, 318.15 K): 0.00299
solubility (mole fraction) (in n-propanol, 323.15 K): 0.00316
solubility (mole fraction) (in n-propanol, 328.15 K): 0.00349
solubility (mole fraction) (in n-propanol, 333.15 K): 0.00395
